# Source: article PMC10156173, “GUN4 appeared early in cyanobacterial evolution” (PNAS Nexus, 2023)
# Key:
# [1] = molecular target: T1, CrGUN4 (Chlamydomonas GUN4) (Chlamydomonas reinhardtii, UniProt A8I5N5, N219G); test: absorption spectrum of purified protein co-expressed with PCB biosynthesis in E. coli; details: TKKG buffer (25 mM TES-KOH pH 7.8, 100 mM KCl, 10% glycerol); no PCB binding detected
# T1 construct: gene CHLRE_05g246800v5; in-frame His-tagged fusion in pET28a; expressed in E. coli C41 with pKT271 (PCB biosynthesis); Ni-NTA purified
# T1 sequence (A8I5N5 entry or part of it N219G): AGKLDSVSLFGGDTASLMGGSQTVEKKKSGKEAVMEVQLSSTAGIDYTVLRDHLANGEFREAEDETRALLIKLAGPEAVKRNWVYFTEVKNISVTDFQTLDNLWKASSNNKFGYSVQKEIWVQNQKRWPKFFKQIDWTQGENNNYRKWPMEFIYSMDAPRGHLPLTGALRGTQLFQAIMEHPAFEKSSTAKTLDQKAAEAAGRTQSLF
# [2] = molecular target: T2, CrGUN4 (Chlamydomonas GUN4) (Chlamydomonas reinhardtii, UniProt A8I5N5); test: as above; format: binding; details: TKKG buffer (25 mM TES-KOH pH 7.8, 100 mM KCl, 10% glycerol); peaks at 368 and 674 nm
# T2 construct: gene CHLRE_05g246800v5; in-frame His-tagged fusion in pET28a; expressed in E. coli C41 with pKT271 (PCB biosynthesis); Ni-NTA purified
# T2 sequence (A8I5N5 entry or part of it): as the sequence (A8I5N5 entry or part of it N219G) above, with G167N counted along it
smiles,measurement,setting,value
CC=C1C(=CC2=NC(=Cc3[nH]c(C=C4NC(=O)C(CC)=C4C)c(C)c3CCC(=O)O)C(CCC(=O)O)=C2C)NC(=O)[C@@H]1C [PCB],bilin absorbance peaks (368 and 674 nm),[1],these peaks are absent in the N219G variant
same,absorption spectrum of purified protein co-expressed with PCB biosynthesis in E.,[2],Wild-type CrGUN4 contains a small amount of bilin as shown by characteristic peaks
